Values quoted from earlier work in patent US20120178114A1, “METHODS AND DEVICES FOR DETECTING THROMBIN GENERATION” (SUBC, INC., priority 2007, published 2012).

Molecular target: thrombin (Homo sapiens, UniProt P00734)
Settings: BAEE as thrombin substrate

CCOC(=O)[C@H](CCCNC(=N)N)NC(=O)c1ccccc1 [BAEE, benzoylarginine ethyl ester]
Km: 100 µM
kcat: 50 s⁻¹
